# Counter-ions that a name gives are not always drawn.
# Assays:
# [1] = system: colon cancer cells; test: Apoptosis induction in combination with histone deacetylase inhibitor TSA; assay type: cell-based; settings: 48 h
# Description: The compound may show activity to activate E2F1-induced apoptosis of at least about 15%, or at least about 20 or 25%, or about 15 to 25%, 15 to 30%, 15 to 20% or 20 to 25%. In this context, transcription factor E2F1, which is involved in the action of tumour suppressing proteins, was engineered with ER receptor ligand binding domain. (ER receptor is a nuclear hormone type of intracellular oestrogen receptor.) The compound may show activity to activate E2F1-induced apoptosis in the presence of 4-OHT of at least about 25% or of at least about 30, 40, 50, 60, 70 or 80%, or of about 25 to about 80%, or about 30 to 80, 50 to 80, 60 to 80 or 50 to 70%, e.g. about 25, 30, 35, 40, 45, 50, 55, 60, 65, 70, 75, 80 or 85%. 4-OHT is 4-hydroxytamoxifen, an anti-estrogenic metabolite of tamoxifen with a much higher affinity for oestrogen receptors than tamoxifen itself. The compound may show apoptosis induction in colon cancer cells with histone deacetylase inhibitor TSA (Trichostatin A) of at least about 40%, or at least about 50, 60, 70 or 80%, or about 40 to about 90%, or about 50 to 90, 70 to 90, 40 to 60 or 50 to 80%, e.g. about 40, 50, 60, 70, 80 or 90%. It may be capable of inhibiting the function of Polycomb repressive complex 2 (PRC2) proteins. In this context, activity % refers to the percentage of cell undergoing apoptosis (death) under the combination drug treatment of DZNep analogue with TSA for 48 h.
# The second assay was designed to measure synergistic effect of new compounds with histone deacetylase inhibitor TSA for apoptosis induction in colon cancer cells. DZNep is known to synergy with TSA to induce strong apoptosis in colon cancer cells ((Jiang et al., Cancer Cell, 13, 529-541, 2008). Again the new compounds are compared with DZNep in the context of inducing apoptosis with TSA. Assays were conducted in accordance with Jiang et al (above).
# [2] = system: HCT115 ER-E2F1 cells; test: E2F1-induced apoptosis assay (ER-E2F1 activated by 4-OHT), FACS subG1; assay type: cell-based; settings: for E2F1 Induced apoptosis % Apoptosis: without 4-OHT (value before the parentheses), 'No activity'; for E2F1 Induced apoptosis (+4-OHT) % Apoptosis: with 4-OHT (value in parentheses)
# Description: Two assays were used to measure the compound's activity in induce apoptosis. The first assay measures the activity of compound to activate E2F1-induced apoptosis. In this assay, transcription factor E2F1 was engineered with ER receptor ligand binding domain. Addition of 4-OHT will be able to activate ER-E2F1 complex activity.
# Fluorescence activated cell sorting (FACS) also known as flow cytometry is the technique used to determine apoptosis in this set of experiments. Apoptosis is indicated by cell populations with DNA content in the subG1 range. To determine the activity of these compounds, the inventors used HCT115 ER-E2F1 cells to determine the activity of the compound in inducing E2F1-dependent apoptosis. In this assay, addition of 4-OHT ligand will activate E2F1. DZNep has been show previously to activate OHT-induced apoptosis in this system.
Compound,Combination with HDAC inhibitor TSA % Apoptosis [1],E2F1 Induced apoptosis % Apoptosis [2],E2F1 Induced apoptosis (+4-OHT) % Apoptosis [2]
"Nc1ncnc2c1ncn2C1C=CCC1 (racemic) [Compound 29, (±)-9-(cyclopent-2-enyl)-9H-purin-6-amine]",No activity,No activity,–
"CC1(C)O[C@H]2[C@H](n3cnc4c(N)ncnc43)CC[C@H]2O1 (racemic) [Compound 30, (±)-9-(2,2-dimethyl-tetrahydro-3aH-cyclopenta[d][1,3]dioxol-4-yl)-9H-purin-6-amine]",No activity,No activity,–
"CC1(C)O[C@H]2[C@H](CC[C@H]2n2cnc3c(N)ncnc32)O1 (racemic) [Compound 31, (±)-9-(2,2-dimethyl-tetrahydro-3aH-cyclopenta[d][1,3]dioxol-4-yl)-9H-purin-6-amine]",No activity,No activity,–
"Nc1ncnc2c1ncn2[C@@H]1CC[C@@H](O)[C@H]1O (racemic) [Compound 32, (±)-(1R,2S,3R)-3-(6-Amino-9H-purin-9-yl)-1,2-cyclopentanediol hydrochloride]",–,–,44%
"Nc1ncnc2c1ncn2[C@@H]1CC[C@H](O)[C@@H]1O (racemic) [Compound 33, (±)-(1R,2S,3S)-3-(6-Amino-9H-purin-9-yl)-1,2-cyclopentanediol hydrochloride]",No activity,No activity,–
CC1(C)O[C@@H]2[C@H](O1)C(COC(c1ccccc1)(c1ccccc1)c1ccccc1)=C[C@H]2n1cnc2c(Cl)nccc21 [Compound 1],–,No activity,–
CC1(C)O[C@@H]2[C@H](O1)C(COC(c1ccccc1)(c1ccccc1)c1ccccc1)=C[C@H]2n1cnc2cncc(Cl)c21 [Compound 2],–,No activity,–
OCC1=C[C@@H](n2cnc3c(Cl)nccc32)[C@H](O)[C@@H]1O [Compound 3],No activity,No activity,–
OCC1=C[C@@H](n2cnc3ccnc(Cl)c32)[C@H](O)[C@@H]1O [Compound 4],No activity,No activity,–
COC(=O)c1cn([C@@H]2C=C(CO)[C@@H](O)[C@H]2O)nn1 [Compound 5],No activity,No activity,–
COC(=O)c1cn([C@@H]2C=C(CO)[C@@H](O)[C@H]2O)cn1 [Compound 6],No activity,No activity,–
COC(=O)c1ncn([C@@H]2C=C(CO)[C@@H](O)[C@H]2O)n1 [Compound 7],No activity,No activity,–
O=C(c1ccccc1)n1c(=O)ccn([C@@H]2C=C(CO)[C@@H](O)[C@H]2O)c1=O [Compound 8],No activity,No activity,–
Cc1cn([C@@H]2C=C(CO)[C@@H](O)[C@H]2O)c(=O)n(C(=O)c2ccccc2)c1=O [Compound 9],No activity,No activity,–
Cc1cn([C@@H]2C=C(CO)[C@@H](O)[C@H]2O)c(=O)[nH]c1=O [Compound 10],No activity,No activity,–
O=c1[nH]cnc2c1ncn2[C@@H]1C=C(CO)[C@@H](O)[C@H]1O [Compound 11],No activity,No activity,–

Compound,Combination with HDAC inhibitor TSA % Apoptosis [1],E2F1 Induced apoptosis % Apoptosis [2],E2F1 Induced apoptosis (+4-OHT) % Apoptosis [2]
O=c1ccn([C@@H]2C=C(CO)[C@@H](O)[C@H]2O)c(=O)[nH]1 [Compound 12],No activity,No activity,–
NC(=O)c1ncn([C@@H]2C=C(CO)[C@@H](O)[C@H]2O)n1 [Compound 13],No activity,No activity,–
NC(=O)c1cn([C@@H]2C=C(CO)[C@@H](O)[C@H]2O)cn1 [Compound 14],No activity,No activity,–
CC1(C)O[C@@H]2[C@H](O1)C(COC(c1ccccc1)(c1ccccc1)c1ccccc1)=C[C@@H]2O [Compound 15],No activity,No activity,–
CC1(C)O[C@@H]2[C@H](O1)C(COC(c1ccccc1)(c1ccccc1)c1ccccc1)=C[C@H]2n1cnc2c(N)ncnc21 [Compound 16],No activity,No activity,–
COC(=O)c1cn([C@@H]2C=C(COC(c3ccccc3)(c3ccccc3)c3ccccc3)[C@H]3OC(C)(C)O[C@H]32)cn1 [Compound 17],No activity,No activity,–
Cc1cn([C@@H]2C=C(COC(c3ccccc3)(c3ccccc3)c3ccccc3)[C@H]3OC(C)(C)O[C@H]32)c(=O)n(C(=O)c2ccccc2)c1=O [Compound 18],No activity,No activity,–
CC1(C)O[C@@H]2[C@H](O1)C(COC(c1ccccc1)(c1ccccc1)c1ccccc1)=C[C@H]2n1ccc(=O)n(C(=O)c2ccccc2)c1=O [Compound 19],No activity,No activity,–
CC1(C)O[C@@H]2[C@H](O1)C(COC(c1ccccc1)(c1ccccc1)c1ccccc1)=C[C@H]2n1cnc2c(Cl)ncnc21 [Compound 20],No activity,No activity,–
"Nc1nccc2c1ncn2[C@@H]1C=C(CO)[C@@H](O)[C@H]1O [Compound 22, 3-Deazaneplanocin A, reference compound]",–,–,65%
"CC1(C)O[C@@H]2[C@H](O1)C(CO)=C[C@H]2n1cnc2c(N)nccc21 [Compound 23, 2′,3′-O-Isopropylidene-3-deazaneplanocin A]",No activity,–,25%
"Cl.Nc1nccc2c1ncn2[C@@H]1C[C@H](CO)[C@@H](O)[C@H]1O [Compound 24, 3-Deazaaristeromycin hydrochloride]",70%,28%,60%
"CC1=C[C@@H](n2cnc3c(N)ncnc32)[C@H](O)[C@@H]1O [Compound 26, (1S,2R,5R)-5-(6-amino-9H-purin-9-yl)-3-methylcyclopent-3-ene-1,2-diol hydrochloride]",–,–,40%
"Nc1ncnc2c1ncn2[C@@H]1C=C(COC(=O)c2ccccc2)[C@@H](O)[C@H]1O [Compound 27, ((3R,4S,5R)-3-(6-amino-9H-purin-9-yl)-4,5-dihydroxycyclopent-1-enyl)methyl benzoate hydrochloride]",–,–,30%
CC1(C)O[C@@H]2[C@H](O1)C(CO)=C[C@H]2n1cnc2c(N)ncnc21 [Compound 28],No activity,No activity,–
